Data taken from ChEMBL document CHEMBL1201862, “PubChem BioAssay data set” (2004).
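Briefly, cells in 96-well plates were exposed to five compound concentrations for 48 h, and endpoints were estimated by linear interpolation. GI50 marks 50% less growth.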 Active and inactive are the calls of the source. Rule as the data show it: active = GI50 up to about 1.1 µM and inactive = higher.

Legend:
Test in all cases: NCI anticancer screen, dose series, 48 h
[1] = system: LOX IMVI
[2] = system: EKVX
[3] = system: SR
[4] = system: BT-549
[5] = system: A498
[6] = system: U-251
[7] = system: MDA-MB-231
[8] = system: KM12
[9] = system: Malme-3M
[10] = system: CCRF-CEM
[11] = system: MOLT-4
[12] = system: UACC-62
[13] = system: UO-31
[14] = system: SN12C
[15] = system: HOP-92
[16] = system: K562
[17] = system: A549
[18] = system: M14
[19] = system: NCI-H460
[20] = system: IGROV-1

Compound	GI50 [1]	GI50 [2]	GI50 [3]	GI50 [4]	GI50 [5]	GI50 [6]	GI50 [7]	GI50 [8]	GI50 [9]	GI50 [10]	GI50 [11]	GI50 [12]	GI50 [13]	GI50 [14]	GI50 [15]	GI50 [16]	GI50 [17]	GI50 [18]	GI50 [19]	GI50 [20]
COC1(C)CP(=O)(OC(C)C)CC(C)=C1Cl (stereo not given)	11.7 µM (inactive)	14.6 µM (inactive)	7.19 µM (inactive)	12.7 µM (inactive)	9.42 µM (inactive)	10.6 µM (inactive)	15.9 µM (inactive)	15.5 µM (inactive)	17.3 µM (inactive)	3.66 µM (inactive)	22.2 µM (inactive)	10.2 µM (inactive)	17.8 µM (inactive)	15.2 µM (inactive)	11.2 µM (inactive)	3.36 µM (inactive)	17.1 µM (inactive)	13.7 µM (inactive)	18.3 µM (inactive)	11.6 µM (inactive)
Cn1c2ccccc2c2c3c(c4c5ccccc5n(C5OC(CO)C(O)C(O)C5O)c4c21)C(=O)OC3=O (stereo not given)	> 100 µM (inactive)	> 100 µM (inactive)	> 100 µM (inactive)	> 100 µM (inactive)	> 100 µM (inactive)	> 100 µM (inactive)	> 100 µM (inactive)	> 100 µM (inactive)	> 100 µM (inactive)	> 100 µM (inactive)	> 100 µM (inactive)	> 100 µM (inactive)	> 100 µM (inactive)	> 100 µM (inactive)	> 100 µM (inactive)	> 100 µM (inactive)	> 100 µM (inactive)	> 100 µM (inactive)	> 100 µM (inactive)	> 100 µM (inactive)
COCn1c(C)c(C)c2c(=O)oc(=O)[nH]c21	> 100 µM (inactive)	> 100 µM (inactive)	> 100 µM (inactive)	> 100 µM (inactive)	> 100 µM (inactive)	> 100 µM (inactive)	> 100 µM (inactive)	> 100 µM (inactive)	> 100 µM (inactive)	> 100 µM (inactive)	> 100 µM (inactive)	> 100 µM (inactive)	> 100 µM (inactive)	> 100 µM (inactive)	> 100 µM (inactive)	> 100 µM (inactive)	> 100 µM (inactive)	> 100 µM (inactive)	> 100 µM (inactive)	> 100 µM (inactive)
CCN1C[C@]2(COC)[C@H](O)C[C@H](OC)[C@]34C1[C@H]([C@H](OC)[C@H]23)[C@]1(OC(C)=O)[C@H]2[C@@H](OC(=O)c3ccccc3)[C@](O)(C[C@H]24)[C@@H](OC)[C@@H]1O	> 100 µM (inactive)	> 100 µM (inactive)	> 100 µM (inactive)	> 100 µM (inactive)	> 100 µM (inactive)	> 100 µM (inactive)	> 100 µM (inactive)	> 100 µM (inactive)	> 100 µM (inactive)	> 100 µM (inactive)	> 10 µM (inactive)	> 100 µM (inactive)	> 100 µM (inactive)	> 100 µM (inactive)	> 100 µM (inactive)	> 100 µM (inactive)	> 100 µM (inactive)	> 100 µM (inactive)	> 100 µM (inactive)	> 100 µM (inactive)
COc1cc2c(cc1OCc1ccccc1)NC(=S)[C@@H]1CCCN1C2=S	55.5 µM (inactive)	> 100 µM (inactive)	48.5 µM (inactive)	> 100 µM (inactive)	> 100 µM (inactive)	49.4 µM (inactive)	85.3 µM (inactive)	30.1 µM (inactive)	71.6 µM (inactive)	> 100 µM (inactive)	> 100 µM (inactive)	> 100 µM (inactive)	> 100 µM (inactive)	> 100 µM (inactive)	94 µM (inactive)	45.2 µM (inactive)	73.8 µM (inactive)	> 100 µM (inactive)	> 100 µM (inactive)	80.7 µM (inactive)
CCCCC1(N=[N+]=[N-])C(=O)C2C=CC=C3c4ccccc4N(C1=O)C32 (stereo not given)	17.9 µM (inactive)	17.8 µM (inactive)	> 10 µM (inactive)	24.5 µM (inactive)	> 10 µM (inactive)	18.7 µM (inactive)	23.6 µM (inactive)	24.8 µM (inactive)	23 µM (inactive)	18.5 µM (inactive)	15.3 µM (inactive)	23.1 µM (inactive)	18.8 µM (inactive)	30.1 µM (inactive)	> 10 µM (inactive)	17.3 µM (inactive)	19.5 µM (inactive)	19.3 µM (inactive)	17.2 µM (inactive)	11.3 µM (inactive)
COc1ccc2oc(=O)c(-c3nc4ccccc4s3)cc2c1	17.8 µM (inactive)	19.2 µM (inactive)	22 µM (inactive)	> 63.7 µM (inactive)	20.8 µM (inactive)	15 µM (inactive)	18.7 µM (inactive)	> 55.3 µM (inactive)	8.61 µM (inactive)	> 38.5 µM (inactive)	> 77.6 µM (inactive)	43.5 µM (inactive)	13.9 µM (inactive)	33.4 µM (inactive)	19.7 µM (inactive)	> 100 µM (inactive)	19.9 µM (inactive)	22.7 µM (inactive)	16.6 µM (inactive)	12.8 µM (inactive)
O=C(O)c1ccccc1/C=C1\Cc2ccc3c(c2C1=O)CCCC3	40 µM (inactive)	43.3 µM (inactive)	26.8 µM (inactive)	41 µM (inactive)	30.8 µM (inactive)	44.7 µM (inactive)	21.4 µM (inactive)	39.8 µM (inactive)	41.8 µM (inactive)	30.4 µM (inactive)	25.2 µM (inactive)	21.1 µM (inactive)	63.5 µM (inactive)	26.2 µM (inactive)	14.3 µM (inactive)	38 µM (inactive)	42.7 µM (inactive)	28.9 µM (inactive)	32 µM (inactive)	31 µM (inactive)
CCCCC1=CC1(C#N)[N+](=O)[O-] (stereo not given)	31.3 µM (inactive)	> 100 µM (inactive)	33.3 µM (inactive)	40.6 µM (inactive)	76.2 µM (inactive)	> 100 µM (inactive)	> 100 µM (inactive)	> 100 µM (inactive)	53.6 µM (inactive)	18.1 µM (inactive)	23.3 µM (inactive)	60.3 µM (inactive)	> 100 µM (inactive)	90.8 µM (inactive)	48.9 µM (inactive)	22.3 µM (inactive)	> 100 µM (inactive)	30.8 µM (inactive)	> 100 µM (inactive)	> 100 µM (inactive)
COc1cc(CCC(=O)O)c2cc3ccccc3cc2c1O	21.5 µM (inactive)	24.7 µM (inactive)	15.6 µM (inactive)	17.1 µM (inactive)	33.6 µM (inactive)	16.4 µM (inactive)	18.9 µM (inactive)	20.5 µM (inactive)	18.4 µM (inactive)	3.22 µM (inactive)	8.89 µM (inactive)	18.4 µM (inactive)	17.8 µM (inactive)	17.8 µM (inactive)	30.9 µM (inactive)	20.8 µM (inactive)	22.1 µM (inactive)	21.7 µM (inactive)	23.2 µM (inactive)	18.7 µM (inactive)
CCOC1CC(=O)c2c(Br)sc(Br)c21 (stereo not given)	19.5 µM (inactive)	21.7 µM (inactive)	21.7 µM (inactive)	24.4 µM (inactive)	32.4 µM (inactive)	16.9 µM (inactive)	19.5 µM (inactive)	19.3 µM (inactive)	23.1 µM (inactive)	7.31 µM (inactive)	14.3 µM (inactive)	18.7 µM (inactive)	18.2 µM (inactive)	24.9 µM (inactive)	17.5 µM (inactive)	17.3 µM (inactive)	29.2 µM (inactive)	17.1 µM (inactive)	20.7 µM (inactive)	15.5 µM (inactive)
CCCCC(C(=O)NCCNC(=O)CCC(=O)N(C)O)C(=O)NCCNC(=O)CCC(=O)N(C)O	> 100 µM (inactive)	> 100 µM (inactive)	> 100 µM (inactive)	> 100 µM (inactive)	> 100 µM (inactive)	> 100 µM (inactive)	> 100 µM (inactive)	> 100 µM (inactive)	> 100 µM (inactive)	> 100 µM (inactive)	> 100 µM (inactive)	> 100 µM (inactive)	> 100 µM (inactive)	> 100 µM (inactive)	> 100 µM (inactive)	> 100 µM (inactive)	> 100 µM (inactive)	> 100 µM (inactive)	> 100 µM (inactive)	> 100 µM (inactive)
CCC(C)C1NC(=O)C(NC(=O)C(CC(C)C)N(C)C(=O)[C@@H]2C=CCN2C(=O)[C@H](C)O)C(C)OC(=O)[C@H](Cc2ccc(OC)cc2)N(C)C(=O)[C@@H]2CCCN2C(=O)[C@H](CC(C)C)NC(=O)C(C)C(=O)[C@H](C(C)C)OC(=O)CC1O (stereo not given in full)	0.00242 µM (active)	< 0.01 µM (active)	0.000216 µM (active)	0.00365 µM (active)	0.00671 µM (active)	0.00131 µM (active)	0.00608 µM (active)	< 0.01 µM (active)	0.00219 µM (active)	0.00164 µM (active)	0.00147 µM (active)	0.00119 µM (active)	0.0138 µM (active)	0.00279 µM (active)	0.00643 µM (active)	0.0021 µM (active)	0.004 µM (active)	0.00188 µM (active)	0.00215 µM (active)	0.00256 µM (active)
CCN(CCCl)CCCCNc1c2ccccc2nc2ccc(OC)cc12	0.149 µM (active)	0.723 µM (active)	< 0.01 µM (active)	1.38 µM (inactive)	0.379 µM (active)	0.239 µM (active)	0.457 µM (active)	0.356 µM (active)	0.957 µM (active)	< 0.037 µM (active)	< 0.01 µM (active)	0.171 µM (active)	1.11 µM (active)	< 0.023 µM (active)	0.18 µM (active)	0.2 µM (active)	0.177 µM (active)	1.12 µM (inactive)	0.0601 µM (active)	0.163 µM (active)
